One block for each molecule: values may come before it.
How the values were obtained:
[1] = test system: binding of CD300f to plastic-immobilized SM; test: Peptide inhibition of CD300f-Ig binding to plastic-immobilized sphingomyelin (epitope mapping); parameters: species or system human; conditions: co-incubation of peptide with CD300f-Ig, FIG. 1
Text: FIG. 1, related to Example 1, is a bar diagram showing the binding capacity of the indicated peptides to sphingomyelin (SM). They y-axis represents absorbance (%). “C” represents the control; “1” represents Peptide 1 of SEQ ID NO: 12; “2” represents Peptide 2 of SEQ ID NO: 13; “3” represents Peptide 3 of SEQ ID NO: 14; “4” represents Peptide 4 of SEQ ID NO: 15; “5” represents Peptide 5 of SEQ ID NO: 5; “6” represents Peptide 6 of SEQ ID NO: 6; “7” represents Peptide 7 of SEQ ID NO: 7; “8” represents Peptide 8 of SEQ ID NO: 16; and “9” represents Peptide 9 of SEQ ID NO: 17; and “10” represents Peptide 10 of SEQ ID NO: 18; FIG. 2, related to Example 1, is a bar diagram showing the binding capacity of the indicated peptides to sphingomyelin (SM). They y-axis represents absorbance (%). “A” represents the control; “B” represents DMSO; “C” represents Peptide 1; “D” represents Peptide 2; “E” represents Peptide 7; “F” represents Peptide 7 C5S (SEQ ID NO: 8); “G” represents Peptide 7 W3A (SEQ ID NO: 9); and “H” represents Peptide 7 R6G (SEQ ID NO: 10). In an attempt to identify the sites of interaction of CD300f with Sphingomyelin (SM), the inventors performed a peptide-based epitope mapping approach. 24 overlapping, 20mer peptides were designed with a 15-aa overlap between successive peptides covering the Ig and stem extracellular sequences of human CD300f. It was analyzed whether any of those 24 peptides could inhibit binding of CD300f to plastic-immobilized SM. Only three of them, peptides 5 (SEQ ID NO:5), 6 (SEQ ID NO:6) and 7 (SEQ ID NO:7), which contained the sequence […] Moreover, different amino acids of the sequence […] NO: 2) were mutated to try to map the interaction with the phospholipid.

HCT116 cells = test: Internalization of 5-DTAF labelled polymeric micelles by flow cytometry; type: cell-based; conditions: 1 mg/ml on 5-DTAF labelled Pluronic F127 micelles, vs non conjugated micelles, FIGS. 4 and 5
Text: FIG. 4, related to Example 2, is a diagram showing the cell internalization rates of polymeric micelles conjugated to the indicated peptides in HCT116 cells. The y-axis represents fluorescence intensity (F.U.) (Mean±SEM) and the x-axis represents the time (min).
FIG. 5, related to Example 2, is a diagram showing the cell internalization rates of polymeric micelles conjugated to the indicated peptides in HCT116 cells. The y-axis represents fluorescence intensity (F.U.) (Mean±SEM) and the x-axis represents the time (min).
Polymeric micelles (PM) were prepared using the film hydration technique. Briefly, the polymers were individually weighted and dissolved in a mixture of methanol:ethanol (1:1). […]
Flow cytometry was used to verify the internalization of 5-DTAF-fluorescently labeled PM in MCF-7 and HCT116 cell lines. For the quantitative fluorescence-activated cell sorting (FACS), 2×10^4 cells were seeded in complete medium in 96 well plates for 24 hours to allow adhesion. […] The plate was analyzed in a cytometer Fortessa (BD Biosciences, USA). Data was analyzed with FCS Express 4 Flow research edition software (De Novo Software, Los Angeles, USA). […] For each sample, at least 10000 individual cells were collected and the mean fluorescence intensity was evaluated. […]

Molecule: CVYRSGWETYLKWWCRGAIW [Peptide 5]
inhibition of binding of CD300f to sphingomyelin (SM) [1]: inhibited binding

B1: CD300f: whole CD300f protein, conjugated onto micelles and tested as CPP (protein, UniProt Q8TDQ1 20-290, looked up)
CMRF35-like molecule 1: TQITGPTTVNGLERGSLTVQCVYRSGWETYLKWWCRGAIWRDCKILVKTSGSEQEVKRDRVSIKDNQKNRTFTVTMEDLMKTDADTYWCGIEKTGNDLGVTVQVTIDPAPVTQEETSSSPTLTGHHLDNRHKLLKLSVLLPLIFTILLLLLVAASLLAWRMMKYQQKAAGMSPEQVLQPLEGDLCYADLTLQLAGTSPQKATTKLSSAQVDQVEVEYVTMASLPKEDISYASLTLGAEDQEPTYCNMGHLSSHLPGRGPEEPTEYSTISRP
modifications: conjugated onto micelles
notes: whole CD300f protein, conjugated onto micelles and tested as CPP
internalization of peptide- or protein-functionalized micelles (HCT116 cells): better CPPs than the ones currently available in the market

Now from value to molecule:

inhibition of binding of CD300f to sphingomyelin (SM) [1]: inhibited binding
Molecule: LKWWCRGAIWRDCKILVKTS [Peptide 7]

inhibition of binding of CD300f to sphingomyelin (SM) [1]: inhibited binding
Molecule: GWETYLKWWCRGAIWRDCKI [Peptide 6]

Source: US20230416334A1, “CELL-PENETRATING PEPTIDES” (FUNDACIÓ HOSPITAL UNIVERSITARI VALL D'HEBRON - INSTITUT DE …, priority 2020, published 2023)
